Measurements published in patent publication US6894046B2, “IL-5 inhibiting 6-azauracil derivatives” (Janssen Pharmaceutica N.V., priority 1998, dated 2005).

What follows are compounds tested on IL-5 production in human blood (assay: In vitro inhibition of IL-5 production in human blood (phytohemagglutinin-stimulated whole blood, ELISA)). Settings: test dose 1×10^−6 M, phytohemagglutinin 2 μg/ml, 48 hours.
Format: cell-based
Description: EXAMPLE C.1: IN VITRO INHIBITION OF IL-5 PRODUCTION IN HUMAN BLOOD
Peripheral blood from healthy male donors was drawn into heparinized syringes (12.5 U heparin/ml). Blood samples were three-fold diluted in RMPI 1640 medium (Life Technologies, Belgium) supplemented with 2 mM L-glutamine, 100 U/ml penicillin and 100 μg/ml streptomycin, and 300 μl fractions were distributed in 24-well multidisc plates. Blood samples were preincubated (60 minutes at 37° C.) in a humidified 6% CO2-atmosphere with 100 μl of drug solvent (final concentration 0.02% dimethylsulfoxide in RPMI 1640) or with 100 μl of an appropriate dose of test compound before being stimulated by the addition of 100 μl of phytohemagglutinin HA17 (Murex, UK) at a final concentration of 2 μg/ml. After 48 hours, cell-free supernatant fluids were collected by centrifugation and stored at −70° C. until tested for the presence of IL-5.
IL-5 measurements were conducted as described in Van Wauwe et al. (1996, Inflamm Res, 45, 357-363) on page 358 using ELISA.
Table 6 lists the percentage inhibition of IL-5 production (column “% inh”) at a test dose of 1×10^−6 M, or in case the percentage inhibition is marked with an “*” 1×10^−5 M, for the compounds of the present invention.

Going from “1-[[2-[1-[2,6-dichloro-4-(4,5-dihydro-3,5-dioxo-1,2,4-triazin-2(3H)-yl)-phenyl]-1-methylethyl]-4-phenyl-2-thiazolyl]acetyl-4-phenylmethyl)piperazine [Compound 35]” to “1′-[[2-[1-[2,6-dichloro-4-(4,5-dihydro-3,5-dioxo-1,2,4-triazin-2(3H)-yl)phenyl]-1-methylethyl-4-phenyl-5-thiazolyl]acetyl]-(1,4′-dipiperidine) [Compound 24]”, the “% inh. (percentage inhibition of IL-5 production)” value falls from 63% to 32%.

Compared with “2-[3,5-dichloro-4-(2-pyridinyl-methyl)phenyl]-1,2,4-triazine-3,5(2H,4H)-dione hydrochloride(:1); hydrate(1:1) [Compound 107]”, “3-[2-[1-[2,6-dichloro-4-(4,5-dihydro-3,5-dioxo-1,2,4-triazin-2(3H)-yl)phenyl]-1-methylethyl-4-(2-chlorophenyl)-5-thiazolyl]-N-(2-methoxyethyl)-benzamide [Compound 63]” is higher in “% inh. (percentage inhibition of IL-5 production)” value: 14% for the first, 38% for the second.

Compared with CN(C)Cc1sc(C(C)(C)c2c(Cl)cc(-n3ncc(=O)[nH]c3=O)cc2Cl)nc1-c1ccccc1.Cl [Compound 2], CC(C)(c1nc(-c2ccccc2Cl)cs1)c1c(Cl)cc(-n2ncc(=O)[nH]c2=O)cc1Cl [Compound 4] is higher in “% inh. (percentage inhibition of IL-5 production)” value: 92% for the first, 94% for the second.

Compared with CC(C)(c1nc(-c2cccs2)cs1)c1c(Cl)cc(-n2ncc(=O)[nH]c2=O)cc1Cl [Compound 5], CCOC(=O)c1sc(C(C)(C)c2c(Cl)cc(-n3ncc(=O)[nH]c3=O)cc2Cl)nc1-c1ccccc1 [Compound 6] is higher in “% inh. (percentage inhibition of IL-5 production)” value: 90% for the first, 94% for the second.

First: CC(C)(c1nc(-c2ccncc2)cs1)c1c(Cl)cc(-n2ncc(=O)[nH]c2=O)cc1Cl [Compound 7]
Second: CC(C)(c1nc(-c2cccc(Cl)c2)cs1)c1c(Cl)cc(-n2ncc(=O)[nH]c2=O)cc1Cl [Compound 8]
The “% inh. (percentage inhibition of IL-5 production)” value of the first is higher: 88% for the first, 85% for the second.

Compared with CCOC(=O)Cc1sc(C(C)(C)c2c(Cl)cc(-n3ncc(=O)[nH]c3=O)cc2Cl)nc1-c1ccccc1 [Compound 9], Cc1sc(C(C)(C)c2c(Cl)cc(-n3ncc(=O)[nH]c3=O)cc2Cl)nc1-c1ccccc1 [Compound 10] is lower in “% inh. (percentage inhibition of IL-5 production)” value: 88% for the first, 85% for the second.

Going from CC(C)(c1nc(-c2ccccc2F)cs1)c1c(Cl)cc(-n2ncc(=O)[nH]c2=O)cc1Cl [Compound 11] to CC(C)(c1nc(-c2ccc(Br)cc2)cs1)c1c(Cl)cc(-n2ncc(=O)[nH]c2=O)cc1Cl [Compound 12], the “% inh. (percentage inhibition of IL-5 production)” value falls from 88% to 70%.

Going from CC(C)(c1nc(-c2c(F)cccc2F)cs1)c1c(Cl)cc(-n2ncc(=O)[nH]c2=O)cc1Cl [Compound 13] to CC(C)(c1nc(-c2ccccc2)c(N2CCOCC2)s1)c1c(Cl)cc(-n2ncc(=O)[nH]c2=O)cc1Cl [Compound 14], the “% inh. (percentage inhibition of IL-5 production)” value rises from 75% to 78%.

First: Cc1sc(C(C)(C)c2c(Cl)cc(-n3ncc(=O)[nH]c3=O)cc2Cl)nc1-c1ccccc1F [Compound 15]
Second: CN1CCN(c2sc(C(C)(C)c3c(Cl)cc(-n4ncc(=O)[nH]c4=O)cc3Cl)nc2-c2ccccc2)CC1 [Compound 16]
The “% inh. (percentage inhibition of IL-5 production)” value of the first is higher: 81% for the first, 57% for the second.

First: Cc1sc(C(C)(C)c2c(Cl)cc(-n3ncc(=O)[nH]c3=O)cc2Cl)nc1-c1cccc(F)c1 [Compound 17]
Second: CC(C)(c1nc(-c2ccc(F)cc2F)cs1)c1c(Cl)cc(-n2ncc(=O)[nH]c2=O)cc1Cl [Compound 18]
The “% inh. (percentage inhibition of IL-5 production)” value of the first is higher: 94% for the first, 91% for the second.

First: CC(C)(c1nc(-c2ccccc2)c(CC(=O)O)s1)c1c(Cl)cc(-n2ncc(=O)[nH]c2=O)cc1Cl [Compound 19, 2-[1-[2,6-dichloro-4-(4,5-dihydro-3,5-dioxo-1,2,4-triazin-2(3H)-yl)phenyl]1-α-methylethyl]-4-phenyl-5-thiazoleacetic acid]
Second: CC(C)(c1nc(-c2ccccc2)c(CC(=O)N2CCOCC2)s1)c1c(Cl)cc(-n2ncc(=O)[nH]c2=O)cc1Cl [Compound 20]
The “% inh. (percentage inhibition of IL-5 production)” value of the first is lower: 13% for the first, 80% for the second.

First: CC(C)(c1nc(-c2ccccc2)c(CC(=O)N2CCC(O)CC2)s1)c1c(Cl)cc(-n2ncc(=O)[nH]c2=O)cc1Cl [Compound 22]
Second: CC(C)(c1nc(-c2ccccc2)c(C(=O)c2ccccc2)s1)c1c(Cl)cc(-n2ncc(=O)[nH]c2=O)cc1Cl [Compound 25]
The “% inh. (percentage inhibition of IL-5 production)” value of the first is lower: 18% for the first, 79% for the second.

Compared with COc1ccccc1-c1csc(C(C)(C)c2c(Cl)cc(-n3ncc(=O)[nH]c3=O)cc2Cl)n1 [Compound 26], Cc1sc(C(C)(C)c2c(Cl)cc(-n3ncc(=O)[nH]c3=O)cc2Cl)nc1-c1ccccc1Cl [Compound 27] is lower in “% inh. (percentage inhibition of IL-5 production)” value: 84% for the first, 77% for the second.

Going from CC(C)(c1nc(-c2cccc(F)c2)cs1)c1c(Cl)cc(-n2ncc(=O)[nH]c2=O)cc1Cl [Compound 28] to COCc1sc(C(C)(C)c2c(Cl)cc(-n3ncc(=O)[nH]c3=O)cc2Cl)nc1-c1ccccc1 [Compound 30], the “% inh. (percentage inhibition of IL-5 production)” value rises from 83% to 93%.

First: CC(C)(c1nc(-c2ccccc2Cl)c(-c2ccccc2)s1)c1c(Cl)cc(-n2ncc(=O)[nH]c2=O)cc1Cl [Compound 32]
Second: CC(C)(c1nc(-c2ccccc2F)c(-c2ccccc2)s1)c1c(Cl)cc(-n2ncc(=O)[nH]c2=O)cc1Cl [Compound 34]
The “% inh. (percentage inhibition of IL-5 production)” value of the first is lower: 91% for the first, 93% for the second.

Going from CC(C)(c1nc(-c2cccc(Cl)c2)c(-c2ccccc2)s1)c1c(Cl)cc(-n2ncc(=O)[nH]c2=O)cc1Cl [Compound 37] to Cc1ccccc1-c1nc(C(C)(C)c2c(Cl)cc(-n3ncc(=O)[nH]c3=O)cc2Cl)sc1-c1ccccc1 [Compound 38], the “% inh. (percentage inhibition of IL-5 production)” value rises from 92% to 93%.

First: CC(=O)N1CCC(c2sc(C(C)(C)c3c(Cl)cc(-n4ncc(=O)[nH]c4=O)cc3Cl)nc2-c2ccccc2)CC1 [Compound 39]
Second: Cc1ccccc1-c1csc(C(C)(C)c2c(Cl)cc(-n3ncc(=O)[nH]c3=O)cc2Cl)n1 [Compound 40]
The “% inh. (percentage inhibition of IL-5 production)” value of the first is lower: 72% for the first, 89% for the second.

Compared with COCc1cccc(-c2nc(C(C)(C)c3c(Cl)cc(-n4ncc(=O)[nH]c4=O)cc3Cl)sc2C)c1 [Compound 44], CC(C)(c1nc(-c2ccccc2)c(CCc2ccccc2)s1)c1c(Cl)cc(-n2ncc(=O)[nH]c2=O)cc1Cl [Compound 45] is higher in “% inh. (percentage inhibition of IL-5 production)” value: 81% for the first, 85% for the second.

Same assay, conditions: test dose 1×10^−6 M, phytohemagglutinin 2 μg/ml, 48 hours, read-out: % inh. (percentage inhibition of IL-5 production)

First: CC(C)(c1nc(-c2ccccc2)c(C(O)c2ccccc2)s1)c1c(Cl)cc(-n2ncc(=O)[nH]c2=O)cc1Cl (racemic) [Compound 29, (±)-2-[3,5-dichloro-4-[1-[5-(hydroxyphenylmethyl)4-phenyl-2-thiazolyl]-1-methyl-ethyl]phenyl]-1,2,4-triazin-3,5(2H,4H)-dione]
Second: CC(C)(c1nc(-c2ccccc2)c(-c2ccccc2)s1)c1c(Cl)cc(-n2ncc(=O)[nH]c2=O)cc1Cl [Compound 23, 2-[3,5-dichloro-4-[1-(4,5-diphenyl-2-thiazolyl)-1-methylethyl]phenyl]-1,2,4-triazine-3,5(2H,4H)-dione]
The inhibition at 1 µM of the first is lower: 71% for the first, 91% for the second.

Going from CC(C)(c1nc(-c2ccccc2)cs1)c1c(Cl)cc(-n2ncc(=O)[nH]c2=O)cc1Cl [Compound 1, 2-[3,5-dichloro-4-[1-methyl-1-(4-phenyl-2-thiazolyl)ethyl]phenyl]-1,2,4-triazine-3,5(2H,4H)-dione] to Cc1nc(C(C)(C)c2c(Cl)cc(-n3ncc(=O)[nH]c3=O)cc2Cl)sc1-c1ccccc1 [Compound 31, 2-[3,5-dichloro-4-[1-methyl-1-(4-methyl-5-phenyl-2-thiazolyl)ethyl]phenyl]-1,2,4-triazine-3,5(2H,4H)-dione], the inhibition at 1 µM falls from 90.5% to 87%.

Compared with Cc1sc(C(C)(C)c2c(Cl)cc(-n3ncc(=O)[nH]c3=O)cc2Cl)nc1-c1cccc(Cl)c1 [Compound 3, 2-[3,5-di-chloro-4-[1-[4-(3-chlorophenyl)-5-methyl-2-thiazolyl]-1-methylethyl]phenyl]-1,2,4-triazine-3,5(2H,4H)-dione], CC(C)(c1nc(-c2ccccc2)c(-c2cccnc2)s1)c1c(Cl)cc(-n2ncc(=O)[nH]c2=O)cc1Cl [Compound 33, 2-[3,5-dichloro-4-[1-methyl-1-[4-phenyl-5-(3-pyridinyl)-2-thiazolyl]ethyl]phenyl]-1,2,4-triazine-3,5(2H,4H)-dione] is lower in inhibition at 1 µM: 92% for the first, 90% for the second.

First: COCCN1CCN(Cc2sc(C(C)(C)c3c(Cl)cc(-n4ncc(=O)[nH]c4=O)cc3Cl)nc2-c2ccccc2)CC1 [Compound 42, 2-[3,5-dichloro-4-[1-[5-[[4-(2-methoxyethyl)-1-piperazinyl]methyl]-4-phenyl-2-thiazolyl]-1-methylethyl]phenyl]-1,2,4-triazine-3,5(2H,4H)-dione]
Second: CC(C)(c1nc(-c2ccccc2)c(Cc2ccccc2)s1)c1c(Cl)cc(-n2ncc(=O)[nH]c2=O)cc1Cl [Compound 43, 2-[3,5-dichloro-4-[1-methyl-1-[4-phenyl-5-(phenylmethyl)-2-thiazolyl]ethyl]phenyl]-1,2,4-triazine-3,5(2H,4H)-dione]
The inhibition at 1 µM of the first is lower: 26% for the first, 86% for the second.
